Data set [1] deals with Alpha-2C adrenergic receptor (Homo sapiens, UniProt P18825). Kind of data set: GPCRScan assay: inhibition of Alpha2C. More on the design: radioligand conc. used [nm] 0.5 – 1.0, parental cells stable MDCK.
For data set [2], the target named is Sigma non-opioid intracellular receptor 1 (Homo sapiens, UniProt Q99720). As to the kind of experiment: GPCRScan assay: inhibition of Sigma 1. More on the design: radioligand conc. used [nm] 4.0 – 5.0, parental cells HEKT.
Data set [3] has as its target Adenosine receptor A1 (Homo sapiens) (UniProt P30542). As to the kind of experiment: A1 (h) CEREP ligand profiling. The settings on record: Compound concentration 10.0 uM.
Data set [4] deals with Beta-1 adrenergic receptor (Homo sapiens) (UniProt P08588). Kind of data set: beta1 (h) CEREP ligand profiling. The settings on record: Compound concentration 10.0 uM.
The target of another data set is Cannabinoid receptor 2 (Homo sapiens, UniProt P34972). Kind of data set: CB2 (h) CEREP ligand profiling.
Cannabinoid receptor 2, sequence (P34972 whole entry): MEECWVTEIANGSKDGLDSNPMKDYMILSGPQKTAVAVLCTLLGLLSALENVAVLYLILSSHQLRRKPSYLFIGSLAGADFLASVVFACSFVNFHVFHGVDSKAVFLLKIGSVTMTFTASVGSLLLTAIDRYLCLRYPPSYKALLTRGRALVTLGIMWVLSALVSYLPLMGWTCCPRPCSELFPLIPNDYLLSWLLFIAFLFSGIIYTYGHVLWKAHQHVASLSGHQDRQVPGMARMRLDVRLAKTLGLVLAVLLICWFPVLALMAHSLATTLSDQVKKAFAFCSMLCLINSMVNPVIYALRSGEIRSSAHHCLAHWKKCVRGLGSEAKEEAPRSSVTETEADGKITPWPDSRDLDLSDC
Data set [5] has as its target Gastrin/cholecystokinin type B receptor (Homo sapiens) (UniProt P32239). As to the kind of experiment: CCKB (h) (CCK2) CEREP ligand profiling. The settings on record: Compound concentration 10.0 uM.
For data set [6], the target named is D(3) dopamine receptor (Homo sapiens) (UniProt P35462). Kind of data set: D3 (h) CEREP ligand profiling. The settings on record: Compound concentration 10.0 uM.
The target of data set [7] is Glutamate receptor ionotropic, AMPA (Rattus norvegicus) (UniProt P19491+P19492+P19493+P19490). As to the kind of experiment: AMPA CEREP ligand profiling. The format is protein-complex assay. As to conditions: Compound concentration 10.0 uM; call rule not given here.
Data set [8] can be described thus: Glycine (strychnine-insensitive) CEREP ligand profiling. As to conditions: Compound concentration 10.0 uM.
In data set [9] the target is Histamine H1 receptor (Homo sapiens) (UniProt P35367). Kind of data set: H1 (h) CEREP ligand profiling. As to conditions: Compound concentration 10.0 uM.
Data set [10] addresses MAO-A (Amine oxidase [flavin-containing] A) (Homo sapiens, UniProt P21397). Kind of data set: MAO-A CEREP ligand profiling. The settings on record: compound concentration 10 uM.
For data set [11], the target named is T1, Muscarinic acetylcholine receptor M2 (Homo sapiens) (UniProt P08172).
T1 sequence (whole entry): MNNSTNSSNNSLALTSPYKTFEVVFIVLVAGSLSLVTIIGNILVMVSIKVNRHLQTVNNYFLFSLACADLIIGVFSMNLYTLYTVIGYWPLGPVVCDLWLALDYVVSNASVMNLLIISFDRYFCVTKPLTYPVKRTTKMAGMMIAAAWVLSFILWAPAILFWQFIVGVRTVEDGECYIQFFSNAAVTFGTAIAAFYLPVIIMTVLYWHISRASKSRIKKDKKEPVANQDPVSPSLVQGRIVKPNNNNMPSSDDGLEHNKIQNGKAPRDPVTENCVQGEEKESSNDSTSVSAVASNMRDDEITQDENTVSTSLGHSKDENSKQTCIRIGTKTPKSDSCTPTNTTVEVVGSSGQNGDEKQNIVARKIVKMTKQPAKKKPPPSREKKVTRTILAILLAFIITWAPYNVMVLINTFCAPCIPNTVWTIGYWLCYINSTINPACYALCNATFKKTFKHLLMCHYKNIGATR
As to the kind of experiment: M2 (h) CEREP ligand profiling. The settings on record: Compound concentration 10.0 uM.

The target in data set [12] is 5-hydroxytryptamine receptor 1B (Homo sapiens) (UniProt P28222). As to the kind of experiment: 5-HT1B CEREP ligand profiling. As to conditions: Compound concentration 10.0 uM.
Data set [13] concerns the target 5-hydroxytryptamine receptor 4 (Homo sapiens) (UniProt Q13639). As to the kind of experiment: 5-HT4e (h) CEREP ligand profiling. The settings on record: Compound concentration 10.0 uM.
Data set [14] concerns the target Vasopressin V1a receptor (Homo sapiens) (UniProt P37288). As to the kind of experiment: V1a (h) CEREP ligand profiling. The settings on record: Compound concentration 10.0 uM.
Data set [15] addresses Ca2+ channel (L, DHP site); voltage-gated L-type calcium channel (Homo sapiens, UniProt O60840+Q01668+Q13698+Q13936). As to the kind of experiment: Ca2+ channel (L, DHP site) CEREP ligand profiling. In kind it is protein assay. The settings on record: compound concentration 10 uM.
Data set [16] deals with Na+ channel (site 2); sodium channel alpha subunit (Homo sapiens, UniProt P35498+P35499+Q01118+Q14524+Q15858+Q99250+Q9NY46+Q9UI33+Q9UQD0+Q9Y5Y9). Kind of data set: Na+ channel (site 2) CEREP ligand profiling. The format is protein assay. The settings on record: compound concentration 10 uM.
Data set [17] addresses Sodium-dependent noradrenaline transporter (Homo sapiens) (UniProt P23975). Kind of data set: NE transporter (h) CEREP ligand profiling. The settings on record: Compound concentration 10.0 uM.
Data set [18] deals with Sodium- and chloride-dependent GABA transporter 1 (Homo sapiens) (UniProt P30531). As to the kind of experiment: GABA transporter CEREP ligand profiling. As to conditions: Compound concentration 10.0 uM.
Data set [19] has as its target Vascular endothelial growth factor receptor 1 (Homo sapiens) (UniProt P17948). Kind of data set: FLT-1 (h) (VEGFR1) CEREP ligand profiling. The settings on record: Compound concentration 10.0 uM.
Data set [20] concerns the target Death-associated protein kinase 3 (Homo sapiens) (UniProt O43293). The settings on record: Compound concentration 1000.0 nM.
The test system of data set [21] is Epidermal growth factor receptor (Homo sapiens), P00533 [L858R]. As to conditions: Compound concentration 1000.0 nM.
The target in data set [22] is Tyrosine-protein kinase Fes/Fps (Homo sapiens) (UniProt P07332). The settings on record: Compound concentration 1000.0 nM.
Tyrosine-protein kinase Fes/Fps (Homo sapiens), sequence (P07332 whole entry): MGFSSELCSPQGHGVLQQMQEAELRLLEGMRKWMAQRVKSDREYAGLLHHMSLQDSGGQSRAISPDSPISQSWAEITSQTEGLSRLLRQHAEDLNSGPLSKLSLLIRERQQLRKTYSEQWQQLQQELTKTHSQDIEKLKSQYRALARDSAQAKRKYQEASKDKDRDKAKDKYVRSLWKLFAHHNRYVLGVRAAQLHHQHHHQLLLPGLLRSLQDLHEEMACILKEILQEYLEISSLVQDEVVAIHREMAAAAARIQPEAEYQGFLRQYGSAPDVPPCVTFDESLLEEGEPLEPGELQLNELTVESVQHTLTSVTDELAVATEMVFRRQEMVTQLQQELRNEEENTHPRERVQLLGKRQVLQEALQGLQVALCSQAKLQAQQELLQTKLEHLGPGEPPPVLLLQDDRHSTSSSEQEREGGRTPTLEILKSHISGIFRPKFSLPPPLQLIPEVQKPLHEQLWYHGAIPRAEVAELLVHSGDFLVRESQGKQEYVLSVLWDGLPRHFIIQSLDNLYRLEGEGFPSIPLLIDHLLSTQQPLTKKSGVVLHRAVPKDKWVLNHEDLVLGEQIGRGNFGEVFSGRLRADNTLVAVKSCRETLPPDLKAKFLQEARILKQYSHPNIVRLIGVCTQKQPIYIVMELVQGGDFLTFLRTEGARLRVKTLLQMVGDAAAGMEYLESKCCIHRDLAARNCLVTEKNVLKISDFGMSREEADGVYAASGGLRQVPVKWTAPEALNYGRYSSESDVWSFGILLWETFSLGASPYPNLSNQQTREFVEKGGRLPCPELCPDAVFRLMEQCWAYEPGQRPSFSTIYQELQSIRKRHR
For data set [23], the target named is Tyrosine-protein kinase Mer (Homo sapiens) (UniProt Q12866). The settings on record: Compound concentration 1000.0 nM.
Tyrosine-protein kinase Mer (Homo sapiens), sequence (Q12866 whole entry): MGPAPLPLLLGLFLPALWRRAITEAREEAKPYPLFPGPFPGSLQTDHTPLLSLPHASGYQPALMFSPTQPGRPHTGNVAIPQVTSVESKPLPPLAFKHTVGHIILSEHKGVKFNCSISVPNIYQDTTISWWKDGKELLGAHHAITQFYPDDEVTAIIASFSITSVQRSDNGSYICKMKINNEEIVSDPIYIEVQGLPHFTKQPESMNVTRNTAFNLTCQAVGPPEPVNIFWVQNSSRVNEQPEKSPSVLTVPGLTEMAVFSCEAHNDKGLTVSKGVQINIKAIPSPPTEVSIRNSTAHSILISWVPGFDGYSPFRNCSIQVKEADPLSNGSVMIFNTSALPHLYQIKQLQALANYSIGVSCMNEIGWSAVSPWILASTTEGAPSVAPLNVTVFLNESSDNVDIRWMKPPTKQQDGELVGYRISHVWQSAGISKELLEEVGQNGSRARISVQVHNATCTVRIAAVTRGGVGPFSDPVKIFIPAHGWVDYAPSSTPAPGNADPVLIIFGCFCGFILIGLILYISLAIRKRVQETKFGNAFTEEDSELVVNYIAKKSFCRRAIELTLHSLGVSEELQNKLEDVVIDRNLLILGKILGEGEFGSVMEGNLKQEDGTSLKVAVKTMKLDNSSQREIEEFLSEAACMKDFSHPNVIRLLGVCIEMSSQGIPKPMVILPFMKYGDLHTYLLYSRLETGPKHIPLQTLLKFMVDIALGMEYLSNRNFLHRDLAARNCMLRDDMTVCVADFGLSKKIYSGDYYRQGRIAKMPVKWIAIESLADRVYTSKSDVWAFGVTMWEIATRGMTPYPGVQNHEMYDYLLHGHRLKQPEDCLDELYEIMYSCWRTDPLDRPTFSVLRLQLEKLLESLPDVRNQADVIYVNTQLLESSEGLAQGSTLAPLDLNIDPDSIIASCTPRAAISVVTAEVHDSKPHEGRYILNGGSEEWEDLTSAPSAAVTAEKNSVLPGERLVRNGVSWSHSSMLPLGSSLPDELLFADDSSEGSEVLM
For data set [24], the target named is cGMP-dependent protein kinase 1 (Homo sapiens) (UniProt Q13976). The settings on record: Compound concentration 1000.0 nM.
cGMP-dependent protein kinase 1 (Homo sapiens), sequence (Q13976 whole entry): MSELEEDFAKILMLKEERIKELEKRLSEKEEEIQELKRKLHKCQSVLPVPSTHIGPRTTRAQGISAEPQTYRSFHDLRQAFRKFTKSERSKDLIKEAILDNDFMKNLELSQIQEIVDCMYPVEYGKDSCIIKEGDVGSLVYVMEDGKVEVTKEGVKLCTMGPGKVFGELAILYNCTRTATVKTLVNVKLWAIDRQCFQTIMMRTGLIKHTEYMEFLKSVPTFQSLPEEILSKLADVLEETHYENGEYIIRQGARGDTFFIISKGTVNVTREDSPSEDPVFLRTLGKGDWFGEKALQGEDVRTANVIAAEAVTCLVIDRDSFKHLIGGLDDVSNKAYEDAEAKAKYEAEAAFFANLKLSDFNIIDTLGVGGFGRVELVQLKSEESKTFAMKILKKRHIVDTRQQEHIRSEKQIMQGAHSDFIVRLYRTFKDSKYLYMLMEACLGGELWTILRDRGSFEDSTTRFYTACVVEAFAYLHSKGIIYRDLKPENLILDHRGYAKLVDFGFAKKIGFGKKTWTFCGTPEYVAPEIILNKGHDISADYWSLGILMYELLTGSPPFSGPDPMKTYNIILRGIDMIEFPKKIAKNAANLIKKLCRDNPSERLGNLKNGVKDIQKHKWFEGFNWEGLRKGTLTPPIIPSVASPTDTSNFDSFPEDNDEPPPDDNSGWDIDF
Data set [25] has as its target Serine/threonine-protein kinase SIK3 (Homo sapiens) (UniProt Q9Y2K2). As to conditions: Compound concentration 1000.0 nM.
Data set [26] deals with 5-hydroxytryptamine receptor 1A (Homo sapiens) (UniProt P08908). The settings on record: Compound concentration 10.0 uM.
The target in data set [27] is Kappa-type opioid receptor (Homo sapiens) (UniProt P41145). The settings on record: Compound concentration 10.0 uM.
The target of data set [28] is Histamine H4 receptor (Homo sapiens) (UniProt Q9H3N8). As to conditions: Compound concentration 10.0 uM.
For data set [29], the target named is Alpha-1D adrenergic receptor (Homo sapiens) (UniProt P25100). As to conditions: Compound concentration 10.0 uM.
For data set [30], the target named is GABA-A receptor; anion channel (Rattus norvegicus) (UniProt O09028+P15431+P18506+P18508+P19969+P20236+P23574+P23576+P28471+P28473+P30191+P62813+P63079+P63138+Q91ZM7+Q9ES14). As to conditions: Compound concentration 10.0 uM.

Death-associated protein kinase 3 (Homo sapiens), sequence (O43293 whole entry, looked up): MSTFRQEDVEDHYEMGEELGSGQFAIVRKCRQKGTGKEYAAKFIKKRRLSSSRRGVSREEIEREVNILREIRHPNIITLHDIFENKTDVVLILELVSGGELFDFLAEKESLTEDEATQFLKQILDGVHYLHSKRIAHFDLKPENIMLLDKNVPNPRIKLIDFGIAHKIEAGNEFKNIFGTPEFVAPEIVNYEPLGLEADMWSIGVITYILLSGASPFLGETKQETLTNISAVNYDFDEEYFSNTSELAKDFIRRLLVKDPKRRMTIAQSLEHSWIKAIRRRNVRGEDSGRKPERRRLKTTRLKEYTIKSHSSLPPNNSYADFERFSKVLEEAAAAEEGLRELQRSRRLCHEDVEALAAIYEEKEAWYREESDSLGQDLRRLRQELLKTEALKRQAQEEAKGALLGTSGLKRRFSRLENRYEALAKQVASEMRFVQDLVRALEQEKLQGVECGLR
Serine/threonine-protein kinase SIK3 (Homo sapiens), sequence (Q9Y2K2 whole entry, looked up): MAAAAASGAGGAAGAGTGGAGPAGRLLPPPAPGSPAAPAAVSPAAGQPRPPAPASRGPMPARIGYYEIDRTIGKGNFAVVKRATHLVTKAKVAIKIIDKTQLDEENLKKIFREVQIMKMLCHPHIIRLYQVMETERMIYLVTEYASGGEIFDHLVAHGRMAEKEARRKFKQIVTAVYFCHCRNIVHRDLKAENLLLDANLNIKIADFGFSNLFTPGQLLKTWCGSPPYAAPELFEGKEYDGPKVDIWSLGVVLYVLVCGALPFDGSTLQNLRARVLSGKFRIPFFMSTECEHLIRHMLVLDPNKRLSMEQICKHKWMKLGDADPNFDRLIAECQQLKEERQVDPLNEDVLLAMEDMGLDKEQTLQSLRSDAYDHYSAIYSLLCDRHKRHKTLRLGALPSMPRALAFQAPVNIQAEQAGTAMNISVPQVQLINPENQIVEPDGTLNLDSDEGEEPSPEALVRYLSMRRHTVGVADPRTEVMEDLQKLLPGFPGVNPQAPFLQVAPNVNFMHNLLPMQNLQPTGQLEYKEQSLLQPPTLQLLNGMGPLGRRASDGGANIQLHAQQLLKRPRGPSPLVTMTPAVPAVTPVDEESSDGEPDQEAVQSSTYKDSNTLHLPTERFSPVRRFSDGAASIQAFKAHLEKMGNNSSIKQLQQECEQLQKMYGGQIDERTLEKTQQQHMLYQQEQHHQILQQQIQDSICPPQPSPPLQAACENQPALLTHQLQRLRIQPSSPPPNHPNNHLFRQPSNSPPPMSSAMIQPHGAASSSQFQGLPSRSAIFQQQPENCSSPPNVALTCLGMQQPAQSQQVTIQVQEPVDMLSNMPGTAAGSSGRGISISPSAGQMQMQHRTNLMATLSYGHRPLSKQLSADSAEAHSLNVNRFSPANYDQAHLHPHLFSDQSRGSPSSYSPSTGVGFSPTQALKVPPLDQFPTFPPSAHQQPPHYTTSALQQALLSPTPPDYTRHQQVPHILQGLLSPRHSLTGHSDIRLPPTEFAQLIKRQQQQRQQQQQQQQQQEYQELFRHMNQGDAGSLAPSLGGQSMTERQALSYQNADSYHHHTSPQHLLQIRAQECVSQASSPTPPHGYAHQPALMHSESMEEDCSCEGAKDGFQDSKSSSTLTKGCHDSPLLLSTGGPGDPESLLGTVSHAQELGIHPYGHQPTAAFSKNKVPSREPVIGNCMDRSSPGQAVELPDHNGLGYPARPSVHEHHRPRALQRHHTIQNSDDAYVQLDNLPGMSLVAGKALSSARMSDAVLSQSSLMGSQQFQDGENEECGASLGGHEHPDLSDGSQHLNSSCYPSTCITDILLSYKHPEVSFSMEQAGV
Sigma non-opioid intracellular receptor 1, sequence (Q99720 whole entry): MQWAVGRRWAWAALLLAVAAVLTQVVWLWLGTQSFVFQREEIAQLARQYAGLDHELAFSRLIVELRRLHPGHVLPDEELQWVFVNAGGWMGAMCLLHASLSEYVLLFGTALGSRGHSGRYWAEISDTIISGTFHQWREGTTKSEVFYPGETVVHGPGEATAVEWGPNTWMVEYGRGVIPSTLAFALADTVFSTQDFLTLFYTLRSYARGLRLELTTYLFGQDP

One may read the Ki as the dissociation constant of the complex between target and ligand, obtained from inhibition or displacement. For orientation: inhibition means the change of the read-out against control, counted positive when it falls. As usually defined, the residual activity is the activity still measured, relative to the control. `O=C(Nc1cccnn1)N1CCC(=Cc2cccc(Oc3ccc(C(F)(F)F)cn3)c2)CC1`: the inhibition constant Ki in [1] was 596 nM; in data set [2], 472 nM; at Cannabinoid receptor 2, 5100 nM. Besides, the inhibition in data set [3] was 3%; in data set [4] it was 1%; at Cannabinoid receptor 2 (Compound concentration 10.0 uM) it was 55%; in [5] it was -6%; in data set [6], 3%; in [7], -8%. Besides, the inhibition is -2% in data set [8]; -1% in [9]; 15% in data set [11]; -3% in data set [12]; -8% in [13]; 8% in data set [14]. Further, the inhibition in data set [17] was -5%; in data set [18], -1%; in [19], 4%; in [26], 20.2%; in [27], 30.5%; in data set [28], 17.3%. In addition, the inhibition in data set [29] was 3.84%. For the same compound, the inhibition at 10 µM was 13% (not active) in data set [10], 11% (not active) in data set [15] and 13% (not active) in data set [16]. For the same compound, the residual activity was 79% in data set [20]; 100% in [21]; 76% in data set [22]; 81% in data set [23]; 100% in data set [24]; 83% in [25].

In the case of `O=C(Nc1cccnn1)N1CC(C/C=C/c2cncc(Oc3ccc(C(F)(F)F)cn3)n2)C1`, the residual activity in data set [20] is 100%; in data set [21], 97%; in data set [22], 91%; in data set [23], 100%; in data set [24], 100%; in data set [25], 74%. In data set [30], the inhibition is 23.7%.

Source of the values: ChEMBL document CHEMBL4507297, “Data for DCP probe PF-04457845” (2021).
